Experimental data published in US10414150B2, “Active-energy-ray-curable composition, composition stored container, two-dimensional or three-dimensional image forming apparatus, method for forming two-dimensional or three-dimensional image, and cured product” (Ricoh Company, Ltd., priority 2015, dated 2019).
Like-named read-outs stand apart in the source and are kept apart here.

How the values were obtained:
[1] = negative = satisfies at least one of (1) LLNA SI less than 3, (2) MSDS, (3) reference; cited from earlier work
[2] = test method: maximization method; cited from earlier work
[3] = cited from earlier work
Female mice = assay: Skin sensitization test by LLNA (Local Lymph Node Assay) method, SI value; format: in vivo; settings: test substance 50.0 w/v % in acetone:olive oil 4:1, 25 μL/auricle, once/day × 3 days, SI less than 3 = negative
Method: In the (1), it is judged that a compound is negative in skin sensitization when the SI value of the compound is less than 3, as described in the journal of “Function and Materials”, September, 2005, volume 25, No. 9, on page 55. The lower the SI value is, the lower skin sensitization is.
The SI value was measured by a skin sensitization test by LLNA (Local Lymph Node Assay) method as described below.
α-Hexyl cinnamaldehyde (HCA, available from Wako Pure Chemical Industries, Ltd.) was used as the positive control substance.
A mixture liquid obtained by mixing acetone (available from Wako Pure Chemical Industries, Ltd.) and an olive oil (available from Fujimi Pharmaceutical Co., Ltd.) at a volume ratio (acetone:olive oil) of 4:1 was used as the medium. […]
Based on the body weights of the animals measured two days before sensitization was started, the animals were divided into two groups (4 mice/group) in a manner that the body weight of each individual would be within ±20% of the average body weight of the whole group according to a body weight stratified random sampling method. […]
About twenty four hours after the BrdU administration, the animals were euthanized, and the auricular lymph nodes were extracted. […] The average value and standard error of the weight of the auricular lymph nodes per group were calculated. […]

[4] = test method: OECD Test Guideline 406; cited from earlier work

CCC(Cc1ccc(C)cc1)(C(=O)c1ccc(N2CCOCC2)cc1)N(C)C (stereo not shown) [2-dimethylamino-2-(4-methylbenzyl)-1-(4-morpholin-4-yl-phenyl)butan-1-one]
Skin sensitization [1]: negative

C=C(C)C(=O)OC(C)(C)C [Example A2, t-butyl methacrylate]
Skin sensitization evaluated according to the reference [2]: negative | Skin sensitization [1]: negative | Vapor pressure ([3]; 18.5° C.): 700 Pa

C=C(C)C(=O)OCCCCC [Example A3, n-Pentyl methacrylate]
Skin sensitization evaluated according to the reference [2]: negative | Skin sensitization [1]: negative | Vapor pressure ([3]; 25° C.): 69.1 Pa

C=C(C)C(=O)OCCCCCC [Example A4, n-Hexyl methacrylate]
Skin sensitization evaluated according to the reference [2]: negative | Skin sensitization [1]: negative | Vapor pressure ([3]; 20° C.): 34.7 Pa

C=C(C)C(=O)OCC(CO)OC(=O)C(=C)C (stereo not shown) [Example B2, Glycerol dimethacrylate]
SI value (Stimulation Index) measured by LLNA test (Female mice): 1.2 | Skin sensitization [1]: negative

C=C(C)C(=O)OCC(CC)(COC(=O)C(=C)C)COC(=O)C(=C)C [Example B6, Trimethylolpropane trimethacrylate]
SI value (Stimulation Index) measured by LLNA test (Female mice): 1.9

O=C(c1ccccc1)C1(O)CCCCC1 [Example C1, 1-Hydroxy-cyclohexyl phenyl ketone]
Skin sensitization [1]: negative | Skin sensitization evaluated according to the MSDS [4]: nothing

CCC(Cc1ccc(C)cc1)(C(=O)c1ccc(N2CCOCC2)cc1)N(C)C (stereo not shown) [Example C2, 2-Dimethylamino-2-(4-methylbenzyl)-1-(4-morpholin-4-yl-phenyl)butan-1-one]
Skin sensitization evaluated according to the MSDS [4]: nothing

CSc1ccc(C(=O)C(C)(C)N2CCOCC2)cc1 [Example C3, 2-[4-(Methylthio)benzoyl]-2-(4-morpholinyl)propane]
Skin sensitization evaluated according to the MSDS [4]: nothing

C=CC(=O)OCc1ccccc1 [benzyl acrylate, reference compound]
Skin sensitization [1]: positive | Vapor pressure ([3]; 25° C.): 9.7 Pa

Caprolactone-modified dipentaerythritolhexaacrylate [Example B5]
Skin sensitization [1]: negative

polyethylene glycol dimethacrylate
Skin sensitization [1]: negative

tricyclodecane dimethanol dimethacrylate
Skin sensitization [1]: negative
